Laboratory results as given in patent US20130345419A1, “AZOLE DERIVATIVE” (TAISHO PHARMACEUTICAL CO., LTD., priority 2011, published 2013).
In brackets after ≈: the same amount, converted by molar mass.

What was measured:
[1] = Test 2: dissolution test in 1,3-butylene glycol/water/ethanol base; format: physicochemical; conditions: base: 5 g 1,3-butylene glycol + 10 g water, ethanol to 100 mL, stirred at 25° C. for 7 days, HPLC
Protocol: (Test 2) Dissolution Test
To 5 g of 1,3-butylene glycol, 10 g of water was added and the mixture was stirred until homogeneity; thereafter, ethanol was added to make a total volume of 100 mL, whereby a base was prepared.

human recombinant FKBP12 = biological target: T1, human recombinant FKBP12 (Homo sapiens, UniProt P62942); assay: Test 1: immunophilin FKBP12 rotamase (peptidylprolyl isomerase) inhibiting activity; format: biochemical; conditions: 12 nM human recombinant FKBP12, substrate succinyl-Ala-Phe-Pro-Phe-paranitroanilide 48 μM, 4° C.; read-out: PKBP12 rotamase inhibiting activity IC50
T1 construct: purchased Sigma F-5398
T1 sequence (P62942 whole entry): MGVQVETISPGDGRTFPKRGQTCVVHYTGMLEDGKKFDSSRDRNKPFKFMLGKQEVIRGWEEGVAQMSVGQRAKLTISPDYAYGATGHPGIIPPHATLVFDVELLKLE
Protocol: (Test 1) Test for Measuring Immunophilin FKBP12 Rotamase Activity
The rotamase (peptidylprolyl isomerase) inhibiting activity of each test compound was measured by a known method (Harding et al., Nature 341, 758-760, 1989; Holts et al., J. Am. Chem. Soc. 115, 9925-9938, 1993.) To be more specific, a plastic cuvette was charged with 35 mM HEPES (pH 7.8), 12 nM human recombinant FKBP12 (Sigma, F-5398), 0.4 mg/mL α-chymotrypsin, and a test compound dissolved in DMSO at varying concentrations (DMSO's final concentration was 0.1%.) Subsequently, 24 mM of the substrate peptide, succinyl-Ala-Phe-Pro-Phe-paranitroanilide, as dissolved in trifluoroethanol containing 500 mM of LiCl was added to give a final concentration of 48 μM, whereupon reaction started. The reaction was carried out at 4° C. and the change in absorbance at 390 nm accompanying the liberation of the paranitroaniline product was monitored. A calculated initial rate minus the corresponding value in the absence of the enzyme was used as an index of rotamase activity. The rotamase inhibiting activity of a test compound was expressed in relative values (%) with respect to the control value of rotamase activity in the absence of the compound, and the concentration of the compound at which it was capable of inhibiting rotamase activity by 50% was calculated as an IC50 value from its concentration response curve.

C57BL mice [2] = assay: Test 3: hair development stimulating effect in shaven mouse model (Compound 1); format: in vivo; conditions: 5% (w/v) solution in Test 2 base, 200 μL on shaven back once daily, day 15 of the administration and onward
Protocol: (Test 3) Test for Measuring Hair Development Stimulating Effect in Shaven Mouse Model
(§1) C57BL mice (female, ca. 7-wk old) were shaven on the back and the base prepared in Test 2 or a solution prepared by dissolving 5% (w/v) of Compound 1 in this base was administered by applying them to the shaven area in 200-μL portions once daily starting 3 days after the shaving (each group consisting of 10 heads.) Every 2 or 3 days after the start of the administration, the state of hair development in the shaven area was scored in accordance with the following criteria.
(§2) Criteria for scoring the hair development: 1=No hair development. 2=Hair development in less than 30% of the shaven area. 3=Hair development in at least 30% but less than 60% of the shaven area. 4=Hair development in at least 60% but less than 90% of the shaven area. 5=Hair development in at least 90% of the shaven area.

[3] = Test 4: dissolution test in ethanol/water base; format: physicochemical; conditions: organic solvent or mixture, thermodynamic from solid; base: 79 mL ethanol, water to 100 mL; stirred at 5° C. for 3 days; HPLC
Protocol: (Test 4) Dissolution Test
To 79 mL of ethanol, water was added to give a total volume of 100 mL, whereby a base was prepared. An excess amount of a test compound was put into a test tube, the prepared base was added, and the mixture was stirred at 5° C. for 3 days and passed through a membrane filter (0.45 μm); the resulting filtrate was diluted with acetonitrile and the concentration of the diluted solution was measured by HPLC to determine the solubility of the compound.

C57BL mice [4] = assay: Test 5: hair development stimulating effect in shaven mouse model (Compound 40); format: in vivo; conditions: 5% (w/v) solution in Test 4 base, 200 μL on shaven back once daily, day 15 of the administration and onward
From the text: as §2
(Test 5) Test for Measuring Hair Development Stimulating Effect in Shaven Mouse Model
as §1, with “Test 4” for “Test 2”, “Compound 40” for “Compound 1”, “the criteria described in Test 3.” for “the following criteria.”

[5] = system: proliferating cell nuclear antigen (PCNA); assay: Test 6: anagen induction stimulating effect in shaven mouse model, skin PCNA by ELISA; format: in vivo; conditions: 5% (w/v) in 80% ethanol, 200 μL once daily for 2 days, skin sampled about 4 hours after second administration, C57BL mice
Protocol: (Test 6) Test for Measuring Anagen Induction Stimulating Effect in Shave Mouse Model
The anagen induction stimulating effect of a compound was measured by the following method with the quantity of skin PCNA being used as an index.
C57BL mice (female, ca. 7-wk old) were shaven on the back and a base (80% ethanol) or a solution prepared by dissolving 5% (w/v) of Compound 40, 52, 59, 61, 63, 64 or 66 in this base was administered by applying them to the shaven area in 200-μL portions once daily for 2 days starting 3 days after the shaving (each group consisting of 5 heads.) About 4 hours after the administration on the second day, the skin at the application site was sampled and homogenized in a buffer containing 50 mM Tris-HCl (pH 7.6), 150 mM NaCl, 1% NP-40, and a protease inhibitor. By a centrifugal separation procedure, a PCNA containing protein solution was prepared and the quantity of PCNA in the solution was measured with a PCNA-ELISA kit of Calbiochem, Inc.

Row | SMILES | solubility at 7 days ([1]; 1,3-butylene glycol/water/ethanol base, organic solvent or mixture, thermodynamic from solid) [mg/mL] | IC50 (human recombinant FKBP12) [nM] | hair development scores versus base administered group (C57BL mice [2]) | solubility at 3 days [3] [mg/mL] | hair development scores versus base administered group (C57BL mice [4]) | quantity of skin PCNA versus base administered group [5] | solubility [1] [mg/mL]
1 | COc1ccc(OCc2cc([C@@H]3CCCN3C(=O)C(F)(F)C3(O)CC(C)(C)CC(C)(C)C3)no2)cc1OC [Compound 1, (S)-1-(2-(5-((3,4-Dimethoxyphenoxy)methyl)isoxazol-3-yl)pyrrolidin-1-yl)-2,2-difluoro-2-(1-hydroxy-3,3,5,5-tetramethylcyclohexyl)ethanone] | 57.5 | 49 | higher than those in the base administered group | – | – | – | –
2 | CC1(C)CC(C)(C)CC(O)(C(F)(F)C(=O)N2CCC[C@H]2c2cc(COc3cccnc3)on2)C1 [Compound 40, (S)-2,2-Difluoro-2-(1-hydroxy-3,3,5,5-tetramethylcyclohexyl)-1-(2-(5-((pyridin-3-yloxy)methyl)isoxazol-3-yl)pyrrolidin-1-yl)ethanone] | – | 83 | – | 113 (≈ 237 mM) | higher than those in the base administered group | higher values for the quantity of skin PCNA than the group administered with the base | –
3 | COc1ccc(OCc2nc([C@@H]3CCCN3C(=O)C(F)(F)C3(O)CC(C)(C)CC(C)(C)C3)no2)cc1OC [comparative example, reference compound] | – | – | – | – | – | – | 30.8
